Measured values published in patent US5955481A, “Pyridine type thiazolidines” (Nissan Chemical Industries, Ltd., priority 1994, dated 1999).

Experiments:
KK mouse = assay: Measurement of Hypoglycemic Effect, KK mouse; format: in vivo; details: for % decrease (percentage of reducing blood glucose): KK mouse, 30 mg/kg, oral, 24 hours after administration
Experimental: (§1) KK mouse and KKAy mouse, NIDDM models (male, 6-7 weeks old) (Nakamura, Proc. Jpn. Acad. 38, 348-352, 1962; Iwatsuka et al. Endocrinol Jpn, 17, 23-35, 1970) were purchased from Nihon Clea. They were allowed free access to high-calories' chow (CMF, Oriental Yeast) and water. Around 40 g-weighted mice were examined.
(§2) Blood (20 μl) collected from the retro-orbital sinus was diluted in 60 units heparin sodium-solution and was centrifuged in a microfuge. The supernatant was assayed. The glucose concentration was determined by glucose oxidase method (Glucose Analyzer II, Beckman).
(§3) All test-compounds suspended in 0.5% carboxy-methyl cellulose (CMC)-saline were orally administered in mice. Before and 24 hours after the administration, blood was collected from the retro-orbital sinus, and a blood glucose value was measured in the above-mentioned manner. The hypoglycemic activity was expressed by the percentage of reducing blood glucose calculated before and 24 hours after the administration.

KKA^y mouse = assay: Measurement of Hypoglycemic Effect, KKAy mouse; format: in vivo; details: oral, 24 hours after administration, read-out: % decrease (percentage of reducing blood glucose)
Experimental: as §1, §2, §3

[1] = system: bovine serum albumin (BSA); assay: Measurement of Anti-Glycation Effect; format: biochemical; details: for % decrease (anti-glycation effect, fluorescence per mg protein, percentage of the control): 5% BSA-0.5M G6P, 37° C., 10 day-incubation; for anti-glycation activities (in words): Test Example 2
Experimental: Because glycated protein is fluorescent, the amount of glycated protein can be determined using fluorescence, according to the previous reports (Doi et al., Proc. Natl. Acad. Sci. U.S.A., 89, 2873-2877, 1992: Mitsuhashi et al., Diabetes, vol. 42, 826-832, 1993). The experimental procedure was modified as follows. Five percent of bovine serum albumin (BSA) containing 0.5M glucose-6-phosphate-2Na (5% BSA-0.5M G6P) was filtration-sterilized (with 0.45 μm-pore size filter) and was incubated at 37° C.; positive control was incubated with 1% dimethyl sulfoxide (DMSO) at 37° C.; blank was incubated at 4° C. All test-compounds dissolved in DMSO (final concentration of DMSO was less than 1%) were added in 5% BSA-0.5M G6P. After 10 day-incubation 5% BSA-0.5M G6P with a compound, positive control and blank were dialyzed against 2L phosphate buffered saline for 24 hours (fractional molecular weight: 12,000-14,000).The dialyzed solution was diluted in water 4 times and was determined the fluorescence (ex. 370 nm-em. 440 nm). The protein concentration of the dialyzed solution (10 μL of which was diluted to 20 times with distilled water) was determined by Lowry-method and the fluorescence was expressed per mg protein. Control (100%) was positive control minus blank. Anti-glycation effect was calculated as the percentage of the control.

[2] = system: AGE protein on arterial walls; details: rat suffering from diabetes; Science, vol. 232, p. 1629 (1986); cited from earlier work

SMILES | % decrease (percentage of reducing blood glucose) (KK mouse) [%] | inhibition in vivo at 30 mg/kg (KKA^y mouse) [%] | % decrease (anti-glycation effect, fluorescence per mg protein, percentage of the control) ([1]; 100 μg/ml) [%] | further results
Cc1oc(-c2ccccc2)nc1CCC(=O)c1ccc(CC2SC(=O)NC2=O)cc1 (stereo not shown) [CP-86325] | 39.4 | 39.5 | 10.3 | anti-glycation activities (in words) [1]: did not exhibit anti-glycation activities
Cc1c(C)c2c(c(C)c1O)CCC(C)(COc1ccc(CC3SC(=O)NC3=O)cc1)O2 (stereo not shown) [CS-045] | 24.2 | -3 | 10.1 | anti-glycation activities (in words) [1]: did not exhibit anti-glycation activities
Cc1oc(-c2ccccc2)nc1C(=O)COc1ccc(C=C2SC(=O)NC2=O)nc1 [I-1a-1, 5-((5-(2-oxo-2-(2-phenyl-5-methyl-4-oxazolyl)ethoxy)-2-pyridyl)methylidene)thiazolidin-2,4-dione] | 48.9 | 48.6 | 42.3 | 
COCOc1ccc(C=C2SC(=O)NC2=O)nc1 [I-1a-2] |  |  | 24.1 | 
O=C1NC(=O)C(=Cc2ccc(OCc3ccccc3)cn2)S1 [I-1a-3] |  |  | 34.1 | 
Cc1oc(-c2ccc(-c3ccccc3)cc2)nc1C(O)COc1ccc(C=C2SC(=O)NC2=O)nc1 (stereo not shown) [I-1a-43] |  | 47.3 |  | 
Cc1oc(-c2ccccc2)nc1C(=O)COc1ccc(CC2SC(=O)NC2=O)nc1 (stereo not shown) [I-2a-1, 5-((5-(2-oxo-2-(2-phenyl-5-methyl-4-oxazolyl)ethoxy)-2-pyridyl)methyl)thiazolidin-2,4-dione] | 65.1 | 50 |  | 
COCOc1ccc(CC2SC(=O)NC2=O)nc1 (stereo not shown) [I-2a-2] |  | 39.9 |  | 
Cc1cccc(-c2nc(C(=O)COc3ccc(CC4SC(=O)NC4=O)nc3)c(C)o2)c1 (stereo not shown) [I-2a-5] |  | 47.7 |  | 
Cc1oc(-c2ccc(F)cc2)nc1C(O)COc1ccc(CC2SC(=O)NC2=O)nc1 (stereo not shown) [I-2a-30] |  | 37.2 |  | 
Cc1oc(-c2ccc(-c3ccccc3)cc2)nc1C(O)COc1ccc(CC2SC(=O)NC2=O)nc1 (stereo not shown) [I-2a-31] |  | 52.2 |  | 
Cc1ccc(-c2nc(C(O)COc3ccc(CC4SC(=O)NC4=O)nc3)c(C)o2)cc1 (stereo not shown) [I-2a-32] |  | 35.4 |  | 
N=C(N)NN [aminoguanidine] |  |  |  | % decrease (anti-glycation effect, fluorescence per mg protein, percentage of the control) ([1]; 1 mM): 21.4%; % decrease (anti-glycation effect, fluorescence per mg protein, percentage of the control) ([1]; 10 mM): 48.9%; % decrease (anti-glycation effect, fluorescence per mg protein, percentage of the control) ([1]; 100 mM): 80.2%; prevention of formation of AGE protein on arterial walls (in words) [2]: prevents formation of AGE protein on arterial walls
COc1ccc(Cl)cc1C(=O)NCCc1ccc(S(=O)(=O)NC(=O)NC2CCCCC2)cc1 [glibenclamide] | -3.6 | -2.5 |  | hypoglycemic activity (in words) (KK mouse; Test Example 1, KK and KKAy mouse, 30 mg/kg oral): did not exhibit hypoglycemic activity
